Data on 4 molecules can be found in patent publication US10357487B2, “Combinations of acetylcholinesterase inhibitors and muscarinic agonists and methods of use thereof” (priority 2015, dated 2019).

Series [1] relates to patients with history of PVR. The series is described as follows: Side effects observed in the patients.
For series [2], the system named is patients with history of PVR. The series is described as follows: Post void residual (PVR) before and after combination regimen in patients with urinary retention. It counts as in vivo, human. Particulars: donepezil 5 or 10 added to respective regimens (alpha blocker, bethanechol); all patients. The procedure:
(§1) The patients opted for immediate TURP and pharmacological therapy with alpha blocker, bethanechol, and donepezil if needed.
(§2) Bethanechol was then added to maximal recommended doses, according to package insert or Physician Desk Reference (PDR), which was 200 mg per day in divided doses. […] Bethanocol was either added at 75 mg five times per day to their existing regimen or patients were switched to betahnocol alone at 75 mg five time per day.
(§3) Subsequently donepezil was added in amounts ranging from 5 or 10 to their respective regimens.

For series [3], the system named is patients with history of PVR. The series is described as follows: Voiding trial / ability to void under stepwise drug regimens. It counts as in vivo, human. As for the experimental part: In an exemplary embodiment, patients with history of PVR of 100 ml to 2500 ml failed bother standard drug treatment and the Trans Urethral Resection of the Prostate (TURP) procedure or combinations of both treatment options.
as §1, §2, §3
While all patients in this series were males, females can also benefit from the present combination, particularly if no obstruction exists in their urinary tract.

The mark [4] stands for this setting: silodosin 8 mg added to tamsulosin.

In the case of `CC(C[N+](C)(C)C)OC(N)=O` (centres unmarked) [bethanechol, carbamyl-methylcholine chloride], the side effects entry in series [1] (bethanechol at 200 mg per day or 375 mg per day, eight patients) is “no side effects”.

On to `COc1cc2c(cc1OC)C(=O)C(CC1CCN(Cc3ccccc3)CC1)C2` (centres unmarked) [donepezil], for which the “reduction in PVR upon completion of the trial” value in series [2] was “more than 75%”. Besides, the ability to void result in series [3] (donepezil 5 or 10 added to respective regimens, each patient) is recorded as “able to void”. The bladder emptying result in series [3] (eight sequentially seen patients, donepezil with bethanechol) is given as “potentiated bethanechol to facilitate bladder emptying”. Further, the frequency of voiding result in series [3] (upon continuation of the regimen with donepezil, all patients) is on record as “increasing frequency of voiding”.

As to `C[C@H](Cc1cc2c(c(C(N)=O)c1)N(CCCO)CC2)NCCOc1ccccc1OCC(F)(F)F` [silodosin], the voiding trial entry in series [3] (setting [4]) is “failed to the voiding trial”. For the same molecule, in series [1] (setting [4]), the side effects result is reported as “no extra side effects”.

`CCOc1ccccc1OCCN[C@H](C)Cc1ccc(OC)c(S(N)(=O)=O)c1` [tamsulosin]: the voiding trial entry in series [3] (tamsulosin 0.4 mg or 0.8 mg per day) is given as “failed a voiding trial”.
